Test results from publication PMC9525345, “Hypoalbuminemia affects the spatio-temporal tissue distribution of ochratoxin A in liver and kidneys: consequences for organ toxicity” (Archives of Toxicology, 2022).
Where two headings read alike, the source gives them in different places.

Legend:
[1] = system: wild-type and albumin knockout mice; experiment: Ochratoxin A toxicity experiment: kidney (histopathology, creatinine, BUN, CD45); assay type: in vivo; settings: 24 h
Description: (§1) To study the role of albumin in OTA toxicity, 8-week-old female homozygote and heterozygote albumin-deficient mice, and corresponding C57BL/6 J wild-type controls were challenged intravenously with 10 mg/kg OTA (#10470691, Fisher Scientific) dissolved in 0.1 M NaHCO3, pH 7.4, with an application volume of 2 ml/kg. On day 1 after OTA injection, heart blood samples were collected, and plasma was separated according to a standard protocol (Gianmoena et al. [2021]). In addition, tissue specimens were collected from the left liver lobe and kidneys, fixed for 2 days in 4% paraformaldehyde (#P087-5, Roth), and finally embedded in paraffin for histopathology and immunohistochemistry analyses (Schneider et al. [2021b]).
(§2) Plasma concentration of albumin, creatinine, and blood urea nitrogen (BUN), as well as activities of alanine transaminase (ALT), and aspartate transaminase (AST) were analyzed by the Piccolo Xpress Chemistry Analyzer (Hitado, Germany) using the Piccolo general chemistry 13 panel (#AB-114-400-0029, Hitado, Germany).
(§3) Hematoxylin and eosin (H&E) staining was performed in 4 µm-thick paraffin-embedded liver and kidney tissue sections as previously described (Campos et al. [2020]).
(§4) Visualization of albumin protein expression in the liver tissue, and immune cell infiltration in the liver and kidney tissues was done by immunohistochemistry using an autostainer (Discovery Ultra Automated Slide Preparation System, Roche, Germany) (Ghallab et al. [2021b]). For this purpose, 4 µm-thick paraffin-embedded liver or kidney tissue sections were incubated with primary antibodies against albumin (# ab192603, abcam), CD45 (a pan leukocyte marker; #550,539, BD Bioscience), and FSP1 (a marker of inflammatory subpopulation of macrophages (Österreicher et al. [2011]) (#ab197896, Abcam). Dilutions of the primary antibodies as well as the used secondary antibodies are described in Table 2. Following staining, entire slides were scanned (Axio Scan.Z1, Zeiss, Germany) and representative images are shown in the results section.

[2] = Intravital two-photon imaging of OTA transport in the kidneys; assay type: in vivo, mice; settings: 5 mg/kg tail vein bolus
Excerpt: (§5) Intravital imaging of OTA transport in the livers and the kidneys of anesthetized wild-type and albumin knockout mice was done using an inverted two-photon microscope (LSM MP7, Zeiss, Germany). Details of the surgical preparation of the mice and exposure of the liver and the kidneys for imaging were previously described (Ghallab et al. [2021a]; Reif et al. [2017]). Tissue morphology was visualized by intravenous administration of the mitochondrial membrane potential marker tetramethylrhodamine ethyl ester (TMRE) (#T669, ThermoFisher Scientific) approximately 10 min before recording (Table 2). To image its transport kinetics in the liver and kidneys, a bolus of OTA (5 mg/kg) was administered via a tail vein catheter (SAI-infusion, IL, USA) within approximately 20 s after the onset of recording; the first few frames recorded prior to the OTA administration served to detect the basal tissue auto-fluorescence (Table 2). The mice were kept under controlled ambient temperature conditions of 36 °C, with exposure to a maintenance isoflurane inhalation anesthesia during the entire recording session.
(§6) During image processing, rigid body registration was performed using StackReg (Thévenaz et al. [1998]) to compensate for tissue movement in the recorded time series. From these stabilized videos, 2D projections were generated using average and standard deviation operators. The pixel classification and autocontext workflows of the interactive image segmentation software ilastik (version 1.3.3post1) (Berg et al. [2019]) were used for compartment segmentation in the 2D projections of liver and kidney. The compartments considered are sinusoids, hepatocyte cytoplasm and bile canaliculi in the liver, as well as inter-tubular capillaries, renal tubular lumen, and the tubular epithelial cells in the kidney. Mean raw OTA intensities were measured per compartment and frame. In addition, for the kidney, mean OTA intensities per tubule were measured based on the signal in the TMRE positive cell compartment, and tubules were subsequently grouped into two sets using k-means clustering based on their maximum mean OTA intensity over time.
(§7) For the calculation of the elimination half-life, Microsoft excel was used. First, the decadic logarithm of the intensity was plotted against the time. Then, the linear declining portion of the curve was selected manually and used for construction of a trend line. Next, the slope of the trendline was multiplied by 2.303 to convert the decadic to the natural logarithm and enable usage of the following formulas: • kel = -slope (Certara knowledgebase) • T ½ = ln (2) /kel (Certara knowledgebase)

[3] = parameters: method as in Perry et al. [2003]; settings: weak organic acid; ref Perry et al. [2003]; cited from earlier work
[4] = parameters: method as in Anzai et al. [2010]; Ringot et al. [2006]; settings: ref Anzai et al. [2010]; Ringot et al. [2006]; cited from earlier work
[5] = system: wild-type and albumin knockout mice; experiment: Ochratoxin A toxicity experiment: liver (histopathology, ALT, AST); assay type: in vivo; settings: 24 h; for liver histopathology: 10 mg/kg i.v. single dose
Description: as §1, §2, §3, §4

mice [6] = system: mice; parameters: method as in Bendele et al. [1985]; Kanisawa and Suzuki [1978]; settings: mice-fed diets containing 40 ppm, equivalent to 5.6 mg/kg b.w. per day; ref Bendele et al. [1985]; Kanisawa and Suzuki [1978]; cited from earlier work
[7] = parameters: method as in EFSA [2020]; settings: ref EFSA [2020]; cited from earlier work
mice [8] = system: mice; parameters: method as in IARC [1993]; settings: ref IARC [1993], cited from earlier work
[9] = parameters: method as in O'Brien and Dietrich [2005]; Ringot et al. [2006]; settings: human; ref O'Brien and Dietrich [2005]; Ringot et al. [2006]; cited from earlier work
HSA = system: HSA; parameters: method as in Poor et al. [2013]; Sueck et al. [2018]; settings: ref Poor et al. [2013], Sueck et al. [2018]; cited from earlier work
[10] = parameters: method as in O'Brien and Dietrich [2005]; Ringot et al. [2006]; settings: mice, per os; ref O'Brien and Dietrich [2005]; Ringot et al. [2006]; cited from earlier work
[11] = Intravital two-photon imaging of OTA transport in the liver; assay type: in vivo, mice
Excerpt: as §5, §6, §7

[12] = heterozygous albumin knockout mice
[13] = homozygous albumin knockout mice

C[C@@H]1Cc2c(Cl)cc(C(=O)N[C@@H](Cc3ccccc3)C(=O)O)c(O)c2C(=O)O1 [OTA, Ochratoxin A]
blood biomarkers of kidney damage, creatinine and urea nitrogen ([1]; between the three mouse models, 10 mg/kg i.v.): no significant differences
immune cell infiltration in kidney (CD45) ([1]; wild type and albumin knockout mice, 10 mg/kg i.v.): no obvious immune cell infiltration
macroscopical or histopathological alterations in kidney tissue ([1]; wild-type, heterozygous and homozygous knockout mice, 10 mg/kg i.v. single dose): did not cause obvious macroscopical or histopathological alterations in the kidney tissue
OTA signal in tubular lumen and tubular epithelial cells [2, 12]: a longer duration and higher intensity of the OTA signal in the tubular epithelial cells
OTA signal in tubular lumen and tubular epithelial cells [2, 13]: rapid filtration into the renal tubular lumen and enrichment into the tubular epithelial cells
half-life ([2]; mouse, renal blood capillaries (kidney), intravenous, homozygous albumin knockout mice, read-out: half-life of OTA signal in renal blood capillaries): ~0.28 min
OTA signal in tubular lumen and tubular epithelial cells ([2]; wild-type mice): only a weak, transient increase was seen in the lumen and cytoplasm of the tubular epithelial cells
pKa, carboxyl group [3]: 4.3
pKa, phenolic hydroxyl group [3]: 7.2
plasma protein-binding capacity [4]: > 99%
liver histopathology [5, 12]: massive pericentral necrosis and hemorrhage
blood biomarkers of liver injury ALT and AST ([5]; heterozygous albumin-deficient mice compared to wild-type and homozygous, 10 mg/kg i.v.): significantly increased values
liver histopathology [5, 13]: appeared smaller compared to the heterozygous animals
liver histopathology ([5]; wild-type mice): small clusters of dead cells in the pericentral compartment of the liver lobule
tumor induction in chronic toxicity studies (mice [6]): induced liver and kidney tumors
Log Pow [7]: 4.37
Acute toxicity LD50 (mice [8]; i.v.): 25.7 to 33.8 mg/kg
Acute toxicity LD50 (mice [8]; p.o.): 46 to 58.3 mg/kg
Half-life in blood t1/2 [9]: 35.5 days
Albumin binding K (HSA): ~10^7
Albumin binding log K (HSA): 7.0 – 7.6
Half-life in blood t1/2 [10]: 40 h
transport of OTA to hepatocytes and bile canaliculi ([11]; heterozygous albumin knockout mice, 5 mg/kg tail vein bolus): transient increases in hepatocytes and enrichment in bile canaliculi
disappearance of OTA from blood after bolus injection [11, 13]: completely disappeared from the blood of homozygous albumin knockout mice within a minute
transport of OTA to hepatocytes and bile canaliculi ([11]; homozygous albumin knockout mice, 5 mg/kg tail vein bolus): massively increased canalicular secretion with almost no increase in the hepatocytes
half-life ([11]; mouse, sinusoidal blood (liver), intravenous, homozygous albumin knockout mice, 5 mg/kg tail vein bolus, read-out: half-life of OTA signal in sinusoidal blood): ~0.22 min
transport of OTA to hepatocytes and bile canaliculi ([11]; wild-type mice, 5 mg/kg tail vein bolus): No transport of OTA to hepatocytes and bile canaliculi was detectable
